Where two headings read alike, the source gives them in different places.
Legend:
[1] = molecular target: GABA receptor-chloride ionophore complex (GR complex); assay: [35S]TBPS binding modulation assay; conditions: for IC50: read-out: IC50, inhibition of [35S]-TBPS binding, +5 μM GABA, in the presence of 5 μM GABA; for Max. Inhib., maximal % of specifically bound [35S]-TBPS displaced: saturating concentrations of test compound
[2] = tested on: metrazol induced convulsions; assay: Inhibition of metrazol induced convulsions (Table 2); type: in vivo, mice; conditions: Mus musculus; inhibition of metrazol induced convulsions; read-out: Anti-Metrazol ED50
Method: Experiments were also performed to determine the physiological relevance of these interactions by measuring the ability of the compound of and used in the invention to modulate TBPS-induced convulsions in Swiss-Webster mice. […] The time to onset of myoclonus (presence of forelimb clonic activity) induced by TBPS was determined by observing each mouse for a period of 45 minutes. Significant differences between the time to onset in control mice vs. steroid-treated mice were determined by Student's t-test. […] The number of animals with tonic and/or clonic convulsions was recorded. In the maximal electroshock test, 50 mA of current at 60 Hz was delivered through corneal electrodes for 200 msec to induce tonic seizure. […] The ED50 (the dose at which the half-maximal effect occurs) was determined for each screen.
Adult male CFI mice (20-30g) were used in these studies. […] Percent protection against metrazol-induced seizures was plotted against time after administration of the compound. […] Ten to twelve mice were used per dose of test drug. […] The number of animals with tonic and/or clonic convulsions was recorded. The ability of the steroid to abolish the tonic component was defined as the endpoint. Sedative potential was determined by a rotorod test where the number of mice staying on a rotating (6 rpm) rod for ≥1 min. in each of three trials was determined.

[3] = tested on: GABA receptor complex (36Cl uptake, cerebral cortical synaptoneurosomes); assay: GABA-stimulated 36Cl uptake in rat cerebral cortical synaptoneurosomes; type: biochemical, rat (male Sprague-Dawley)
Method: In addition, the ability of the BZ clonazepam to modulate ^36 Cl uptake in the presence or absence of 5α-pregnandiol was evaluated.
The homogenate was diluted to a final volume of 40 mL with buffer and filtered through three layers of Nylon mesh (160 μm).
Aliquots of membrane preparation (200 μL) were preincubated at 30° C. for 10 min. The interaction was initiated by the simultaneous addition of drugs/steroids and 0.2 mL ^36 Cl (New England Nuclear Boston, Mass., 0.55 mCi/mmol, 0.8 μCi/ml) resulting in a total incubation volume of 0.4 mL. Steroids and test drugs were solubilized in dimethylsufoxide (DMSO) and added to the reaction mixture in 2 μL aliquots. An equal volume of vehicle was always included in the control reaction mixture. The mixture was gently mixed and ^36 Cl uptake terminated after 5 sec by the of 5 mL of ice cold buffer containing 100 μM picrotoxin (Sigma Chem Co.) followed immediately by rapid filtration through glass fiber filters (Whatman GF/C) under vacuum. The filters were washed twice with 5 mL of ice-cold buffer and the filter-bound radioactivity quantitated by liquid scintillation spectrophotometry. Specific uptake was calculated by subtracting the amount of ^36 Cl bound to the filters in the absence of synaptoneurosomes from that observed in their presence. Percent enhancement represents percent increase in uptake over that of basal ^36 Cl uptake. Statistical comparisons utilized the analysis of variance (ANOVA).

progesterone receptor = molecular target: T1, progesterone receptor (Bos taurus, UniProt F1N712); assay: Inhibition of 3H-progesterone binding to bovine uteral progesterone receptors
T1 construct: from tissue; host or cells: bovine uterus cytosol
T1 sequence (F1N712 1-914): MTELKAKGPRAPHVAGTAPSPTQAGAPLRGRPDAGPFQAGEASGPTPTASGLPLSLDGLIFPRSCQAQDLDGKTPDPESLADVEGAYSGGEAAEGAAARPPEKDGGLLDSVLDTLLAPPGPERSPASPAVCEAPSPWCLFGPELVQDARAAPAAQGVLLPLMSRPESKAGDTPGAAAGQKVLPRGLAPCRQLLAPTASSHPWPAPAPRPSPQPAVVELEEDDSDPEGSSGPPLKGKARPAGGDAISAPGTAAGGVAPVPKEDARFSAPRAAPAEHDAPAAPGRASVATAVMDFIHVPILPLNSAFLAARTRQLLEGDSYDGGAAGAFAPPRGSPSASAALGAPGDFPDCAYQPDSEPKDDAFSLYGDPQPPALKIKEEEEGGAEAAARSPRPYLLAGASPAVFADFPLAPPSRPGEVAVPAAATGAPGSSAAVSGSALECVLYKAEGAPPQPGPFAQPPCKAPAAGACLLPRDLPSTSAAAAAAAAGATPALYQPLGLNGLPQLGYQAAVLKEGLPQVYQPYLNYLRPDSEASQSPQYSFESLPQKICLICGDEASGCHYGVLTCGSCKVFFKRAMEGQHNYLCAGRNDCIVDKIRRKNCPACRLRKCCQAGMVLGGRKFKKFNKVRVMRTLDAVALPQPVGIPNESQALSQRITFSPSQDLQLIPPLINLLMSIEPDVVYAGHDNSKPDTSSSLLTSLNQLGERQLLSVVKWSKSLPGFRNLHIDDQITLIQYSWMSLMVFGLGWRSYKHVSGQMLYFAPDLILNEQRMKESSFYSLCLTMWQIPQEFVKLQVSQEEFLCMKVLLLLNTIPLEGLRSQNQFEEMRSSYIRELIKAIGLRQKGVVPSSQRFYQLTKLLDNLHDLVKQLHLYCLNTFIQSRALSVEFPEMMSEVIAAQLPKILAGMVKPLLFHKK
Method: The hormonal activity of drugs described herein was further studied through testing their potential estrogenic, progestinic, mineralocorticoid and glucocorticoid activities. These activities were analyzed by monitoring the ability of the drugs to inhibit binding of the steroid hormones to their respective hormone receptors.
For the data presented in Table 9, bovine uteri cytosol was isolated as they were for Table 7 and used for following binding to progesterone receptors by following the inhibition of ^3 H-progesterone, the natural ligand.

open-field activity = assay: Open-field activity test; type: in vivo, mice (male N.I.H. Swiss-Webster)
Description: (§1) The light/dark transition test (Crawley and Goodwin, 1980) is based on the observation that rodents naturally tend to explore novel environments, but open, brightly lit arenas are aversive to the rodents and inhibit exploratory behavior (Christmas and Maxwell, 1970; File, 1980). […] Similar to the light/dark transition test, the open-field test measures the antagonism between the tendency to explore a novel environment and the tendency to remain still in an aversive environment (brightly lit arena). […] The open-field test provides a simple, non-punished assessment of the potential anxiolytic properties of novel compounds. Finally, 3α-OH-DHP was tested for anxiolytic properties in a Vogel conflict paradigm. The ability of BZs to attenuate the suppression of behavior by punishment in conflict paradigms is well established (Gellar et al., 1962; Vogel et al., 1971).
(§2) Male N.I.H. Swiss-Webster mice (Harlan) weighing 15-20 g were used in all experiments. The mice were housed 4/cage in polyethylene cages with sawdust bedding. The colony room was environmentally controlled (22° C.) with a 12 hr. light/dark cycle (0600-1800 hrs.). The mice had free access to food and water. The experiments were run from 0700-1500 hrs. and groups were counterbalanced for time of day effects.
As a secondary measure of anxiolytic effects, naive mice were placed in the center of a large, brightly lit plexiglass box (42×42×30.5 cm) and the total distance traveled was measured during a 10 min. test period. […] The Digiscan Activity Monitor (Omnitech Electronics, Columbus, Ohio) includes 16 photobeams that surround the box. The activity monitor is linked to a computer through a Digiscan Analyzer (Omnitech Electronics) and the data is analyzed using the Integrated Lab Animal Monitoring System (Omnitech Electronics). The mice were administered drugs as described for light/dark transitions.
(§3) 2-Hydroxypropyl β-cyclodextrin Diazepam and chlordiazepoxide are available from Sigma, Co. (St. Louis, Mo.). CGS-8216 was obtained from Ciba-Geigy (Summit, N.J.). All drugs were dissolved in 20% β-cyclodextrin in water and sonicated overnight. All drugs were administered intraperitoneally in a volume of 100 μL/20 g. CGS-8216 was administered subcutaneously in a volume of 100 μL/20 g.
(§4) The vehicle control data were analyzed across test days using an 1-way analysis of variance (ANOVA). […] The dose-response curves were then analyzed using an 1-way ANOVA, followed by Dunnett's t-test for individual comparisons between doses and control. The open-field and habituated locomotor data were analyzed using ANOVA followed by Dunnett's t-test. […] All data is expressed as the mean±S.E.M.

[4] = tested on: number of light/dark transitions (anxiety); assay: Light/dark transition test; type: in vivo, mice (male N.I.H. Swiss-Webster); conditions: 3α-OH-DHP 10, 20, 40 mg/kg; 5α-THDOC 20 mg/kg; diazepam 1.0, 5.0, 10, 20 mg/kg; 20 mg/kg
Description: as §1, §2
The method used was previously described by Crawley and Goodwin (1980). The apparatus included a large box (26×33×24 cm) connected to a small box (15×22×14 cm) through an opening (5×6 cm). The large box was brightly lit with a standard 100W light bulb, while the small box was kept dark. Following pretreatment with a test drug, mice were placed in the center of the large box and the number of transitions between the large and small boxes was counted for 10 min. […] During the antagonist studies, CGS-8216 was administered 30 min. prior to the test drug.
as §3, §4

[5] = tested on: metrazol-induced seizures; assay: Time course of antimetrazol activity of prodrugs; type: in vivo, mice (CF1); conditions: Mus musculus, 60 mg/kg ip
[6] = 1 hr, read-out: Antimetrazol activity, % of animals protected, 1 hr
[7] = 4 hr, read-out: Antimetrazol activity, % of animals protected, 4 hr

SMILES | IC50 [1] [nM] | Max. Inhib., maximal % of specifically bound [35S]-TBPS displaced [1] [%] | ED50 [2] [mg/kg] | responders at 60 mg/kg [5, 6] [%] | further results
CC(=O)[C@H]1CC[C@H]2[C@@H]3CCC4=C[C@H](O)CC[C@]4(C)[C@H]3CC[C@]12C [3α-HYDROXY-4-PREGNEN-20-ONE] | 154 | 80 | 20 |  | 
NCCCC(=O)O [GABA, gamma-aminobutyric acid] |  |  |  |  | % enhancement of basal 36Cl uptake ([3]; GABA (25 μM) alone): 133 ± 6%; shift of [35S]TBPS dose-response curve by (+)bicuculline ([1]; 0.5-3.0 μM bicuculline, FIGS. 1A, 1B): classical parallel shift
CO[C@H]1C[C@@]2(C)[C@@H](CC[C@@H]3[C@@H]2CC[C@]2(C)[C@@H](C(C)=O)CC[C@@H]32)C[C@@H]1O [2β-METHOXY-3α-HYDROXY-5α-PREGNAN-20-ONE, 2β-Methoxy-3α-hydroxy-5α-pregnan-20-one] | 66 | 100 | 60 |  | 
CC(=O)[C@H]1CC[C@H]2[C@@H]3CC[C@H]4C[C@](C)(O)CC[C@]4(C)[C@H]3CC[C@]12C [3α-HYDROXY-3β-METHYL-5α-PREGNAN-20-ONE, 3α-hydroxy-3β-methyl-5α-pregnan-20-one] | 60 | 100 | 9 |  | inhibition at 10 µM (progesterone receptor; read-out: % of inhibition of 3H-progesterone binding, A, competitor 10^-5 M, 0.15 nM 3H-progesterone): 10%; inhibition at 1 µM (progesterone receptor; read-out: % of inhibition of 3H-progesterone binding, A, competitor 10^-6 M, 0.15 nM 3H-progesterone): 4%; inhibition at 10 µM (progesterone receptor; read-out: % of inhibition of 3H-progesterone binding, B, competitor 10^-5 M, 0.25 nM 3H-progesterone): 5%; inhibition at 1 µM (progesterone receptor; read-out: % of inhibition of 3H-progesterone binding, B, competitor 10^-6 M, 0.25 nM 3H-progesterone): 2%
CN1CCc2cc3c(cc2[C@H]1[C@@H]1OC(=O)c2c1ccc1c2OCO1)OCO3 [(+)bicuculline, reference compound] |  |  |  |  | block of the stimulatory effect of GABA on 36Cl uptake ([3]; (+)bicuculline 10 μM, GABA 25 μM): completely block; % enhancement of basal 36Cl uptake ([3]; GABA (25 μM) + (+)bicuculline (10 μM)): 3 ± 2%
CC(=O)[C@H]1CC[C@H]2[C@@H]3CC[C@H]4C[C@@H](O)CC[C@]4(C)[C@H]3CC[C@]12C [Example 3β-OH-DHP, 3β-hydroxy-5α-pregnan-20-one, reference compound] | > 100000 | 33 |  |  | total distance, open-field (open-field activity; 20 mg/kg, 10 min, vehicle 2004.6 ± 134.6): 1979.8 ± 174.5 cm; effect on open-field activity (open-field activity; steroids 20 mg/kg, diazepam 10 mg/kg): did not show any effect; IC50, inhibition of [35S]-TBPS binding, No GABA ([1]; washed synaptoneurosomes, no GABA added): Inactive; effect on number of light/dark transitions (words) [4]: did not produce an anxiolytic effect
CC(=O)OCC(=O)[C@H]1CC[C@H]2[C@@H]3CC[C@H]4C[C@H](OC(=O)C(C)C)CC[C@]4(C)[C@H]3CC[C@]12C |  |  |  | 63 | responders at 60 mg/kg [5, 7]: 13%
CCC(=O)O[C@@H]1CC[C@@]2(C)[C@@H](CC[C@@H]3[C@@H]2CC[C@]2(C)[C@@H](C(C)=O)CC[C@@H]32)C1 |  |  |  | 75 | responders at 60 mg/kg [5, 7]: 0%
CC(=O)O[C@@H]1CC[C@@]2(C)[C@@H](CC[C@@H]3[C@@H]2CC[C@]2(C)[C@@H](C(C)=O)CC[C@@H]32)C1 [CH3] |  |  |  | 25 | 
CCCC(=O)O[C@@H]1CC[C@@]2(C)[C@@H](CC[C@@H]3[C@@H]2CC[C@]2(C)[C@@H](C(C)=O)CC[C@@H]32)C1 |  |  |  | 75 | responders at 60 mg/kg [5, 7]: 13%
CCO[C@H]1C[C@@]2(C)[C@@H](CC[C@@H]3[C@@H]2CC[C@]2(C)[C@@H](C(C)=O)CC[C@@H]32)C[C@@H]1O [2β-ETHOXY-3α-HYDROXY-5α-PREGNAN-20-ONE, 2β-Ethoxy-3α-hydroxy-5α-pregnan-20-one] | 97 | 100 | 6 |  | 

— US5232917A, “Methods, compositions, and compounds for allosteric modulation of the GABA receptor by members of the androstane and pregnane series” (priority 1991, dated 1993)
